Source: patent publication US20260014129A1, “MITOCHONDRIAL PYRUVATE METABOLISM INHIBITORS FOR TREATING CHRONIC MYELOID LEUKEMIA” (The University Court of the University of Glasgow, priority 2022, published 2026)

Assays:
[1] = Body weight of xenografted NRG-W41 mice during treatment; conditions: 4 weeks
Procedure: For in vivo engraftment, 1 million CML CD34^+ cells, were transplanted via tail vein into sublethally irradiated (2.5Gy) female NRG-W41 (NOD.Cg-Rag1^tm1MomKit^W-41JIl2rg^tm1Wjl)) mice aged 8-10 weeks. Mice were housed under conditions of alternating 12 hours light and 12 hours darkness, at 20-24° C., 45-65% humidity, with feeding (LBS biotech: SDS Cat #SDS801730) and water ad libitum.
For treatment with imatinib plus MSDC-0160, eight weeks following transplant, drug treatment was started with both imatinib (LC Laboratories, Cat #1-5508) dosed at 100 mg/kg/day (50 mg per kg body weight BID) oral gavage and MSDC-0160 (30 mg/kg; oral gavage once daily). Treatment was given for 4 weeks.

CML CD34+ cells = assay: Patient-derived xenograft of CML CD34+ cells in NRG-W41 mice, bone marrow flow cytometry; format: in vivo, human
Procedure: Treatment was given for 4 weeks. For treatment with asciminib (ABL001) plus MSDC-0160, twelve weeks following transplant, drug treatment was started with both asciminib (Fisher Scientific Cat #1642956) dosed at 10 mg/kg/day (5 mg/kg BID); oral gavage and MSDC-0160 (Apex Biotechnology: Cat #B3702) dosed at 30 mg/kg; oral gavage once daily. Treatment was given for 4 weeks. At the respective endpoints, bone marrow cells were collected. This was done by placing inverted cut leg bones into 0.5 mL Eppendorf tubes with holes at bottom. These in turn were placed within 1.5 mL Eppendorf tubes containing PBS, centrifuged (12,000 RCF, 20 seconds). Cells were stained (300 μl/test) with anti-mouse (APC-Cy7 BD Biosciences: Cat #557659, RRID: AB_396774, 1 μl), anti-human CD45 (FITC; BD Biosciences: Cat #555482, RRID: AB_395874, 10 μl), anti-human CD34 (APC; BD Biosciences: Cat #555824, RRID: AB_398614, 2 μl) and anti-human CD38 (PerCP; BioLegend: Cat #303520, RRID: AB_893313, 2 μl) antibodies for flow cytometry analysis as described above.

[2] = combination of imatinib and MSDC-0160, 4 weeks

## CCc1ccc(C(=O)COc2ccc(CC3SC(=O)NC3=O)cc2)nc1 (centres unmarked) [MSDC-0160]
[1]; imatinib 50 mg/kg BID or MSDC-0160 30 mg/kg/day, oral gavage
  tolerability (body weight throughout the study), single agent arms: well tolerated
[1]; imatinib 50 mg/kg BID plus MSDC-0160 30 mg/kg/day
  tolerability (body weight throughout the study), combination arm: well tolerated
CML CD34+ cells; MSDC-0160 30 mg/kg once daily, 4 weeks, 12 weeks engraftment
  percentage of human CML LSCs, MSDC-0160 on its own: reduction in the percentage of human CML LSCs
CML CD34+ cells; MSDC-0160 30 mg/kg plus ABL-001 10 mg/kg/day, 4 weeks
  percentage of human CML LSCs, combination with ABL-001: reduction in the percentage of human CML LSCs
CML CD34+ cells; combination of ABL-001 and MSDC-0160 30 mg/kg, 4 weeks
  total numbers of CML CD45+CD34+CD38- cells (LSC): did not reduce the total numbers
CML CD34+ cells; combination of imatinib 50 mg/kg BID and MSDC-0160 30 mg/kg/day, 4 weeks
  reduction in percentage of human CD45+ leukocytes and total number of bone marrow CD45+ cells: did not reach statistical significance
CML CD34+ cells; [2]
  percentage and absolute number of human CML LSCs (CD34+CD38-): marked reduction in both the percentage and absolute number
  relative and total reduction of CD34+ cells versus vehicle or imatinib arms: did not reach statistical significance
